By IC50 is commonly meant the concentration needed to halve the response being measured.

16 compounds from patent US20120095032A1, “METHODS FOR TREATING LEUKEMIA AND MYELODYSPLASTIC SYNDROME, AND METHODS FOR IDENTIFYING AGENTS FOR TREATING SAME” (Sanford-Burnham Medical Research Institute, priority 2007, published 2012) can be followed below.

Test [1] deals with T1, HePTP (Homo sapiens, UniProt P35236).
T1 sequence (P35236 1-360): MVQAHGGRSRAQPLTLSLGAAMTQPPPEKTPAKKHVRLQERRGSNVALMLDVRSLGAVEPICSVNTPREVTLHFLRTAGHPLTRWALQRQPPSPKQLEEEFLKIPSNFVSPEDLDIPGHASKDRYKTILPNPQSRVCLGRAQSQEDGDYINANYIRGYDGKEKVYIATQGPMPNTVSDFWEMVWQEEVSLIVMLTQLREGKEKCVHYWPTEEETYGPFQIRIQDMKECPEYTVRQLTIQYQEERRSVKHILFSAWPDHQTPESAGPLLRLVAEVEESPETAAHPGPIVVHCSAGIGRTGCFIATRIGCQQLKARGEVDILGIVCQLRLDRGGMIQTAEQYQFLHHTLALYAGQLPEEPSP
Kind of test: HePTP HTS primary screen (colorimetric pNPP / Biomol Green). It counts as biochemical. Particulars: 20 μM compound; read-out: % Inhib. at 20 μM. The source says: (§1) The following assay can be conducted manually or can be carried out by a robotic station.
For this assay, HePTP catalyzes the following reaction:
wherein p-nitrophenyl phosphate serves as a substrate and is cleaved to form p-nitrophenol and phosphate. The liberated phosphate complexes with the Biomol Green™ reagent to provide a quantitative colorimetric value for the amount of substrate cleaved.
(§2) Compounds are then serially diluted in 100% DMSO, and then diluted with water to 10% final DMSO concentration.
(§3) The primary screening actives can then proceed to the dose-response confirmation stage.

The target in test [2] is T1, HePTP. The experiment in a line: HePTP dose-response confirmation screening. It counts as biochemical. Particulars: for IC50: 10 concentrations, 2-fold serial dilution, pNPP substrate; for n / nH (Hill coefficient): Hill coefficient of the dose-response curve.
Source text: as §1, §2, §3
* n represents the Hill coefficient. This coefficient is derived from the Hill equation which has the formula: […]
wherein θ is the fraction of ligand binding sites filled, L is the inhibitor concentration, Ka is the inhibitor concentration producing half occupation of the ligand binding sites, and n is the Hill coefficient.

Take `O=C(c1ccc(=O)oc1)N1CCOCC1`: the inhibition at 20 µM in test [1] was determined as 54.1%. Besides, in test [2], it took 990 nM to reach half-maximal inhibition (IC50) and the “n / nH (Hill coefficient)” value is 1.02.

For `O=C(O)c1ccccc1-c1ccc(/C=c2\sc3nc4cc(Br)cnc4n3c2=O)o1`, the inhibition at 20 µM in test [1] worked out at 102%. Further, in test [2], 1790 nM corresponded to half-maximal inhibition (IC50) and the “n / nH (Hill coefficient)” value is on record as 7.56.

Take `CCC1=NC2Sc3ccccc3C(=O)C2C(=O)N1Cc1ccco1` (centres unmarked): the inhibition at 20 µM in test [1] came to 79.4%. Further, in test [2], half-maximal inhibition (IC50) required 15100 nM and the “n / nH (Hill coefficient)” value came out at 1.27.

As to `CSc1nc(N(CCO)CCO)c2sc3nc(-c4ccco4)c4c(c3c2n1)CCC4`, the inhibition at 20 µM in test [1] worked out at 62.5%. Further, in test [2], half-maximal inhibition (IC50) was put at 410 nM and the “n / nH (Hill coefficient)” value is reported as 2.28.

For `COc1ccc(Cn2c(C)nc3c(c2=O)c2nc4ccccc4nc2n3Cc2ccco2)cc1`, in test [1], the inhibition at 20 µM is 104%. In test [2], the midpoint of inhibition, the IC50, lay at 6860 nM and the “n / nH (Hill coefficient)” value is reported as 2.17.

In the case of `CCn1c(SC(C)C(=O)O)nc2c(c1=O)C1=C(CCC1)C2` (centres unmarked), in test [1], the inhibition at 20 µM stood at 86%. For the same compound, in test [2], the IC50 is 1690 nM and the “n / nH (Hill coefficient)” value turned out to be 3.77.

`CCn1c(SCC(=O)O)nc2c(c1=O)C1=C(CCC1)C2`: the inhibition at 20 µM in test [1] was 102%. Also, in test [2], the IC50 is 1290 nM and the “n / nH (Hill coefficient)” value is on record as 4.48.

In the case of `COc1ccc2c(c1)=CC(=C1N=C(c3ccc(F)cc3)ON1)C(=O)N=2` (stereo in doubt) [(3Z)-3-[5-(4-fluorophenyl)-1,2,4-oxadiazol-3-ylidene]-6-methoxy-quinolin-2-one], the inhibition at 20 µM in test [1] was 99.2%. For the same compound, in test [2], it took 2180 nM to reach half-maximal inhibition (IC50) and the “n / nH (Hill coefficient)” value is recorded as 2.73.

With `COc1ccc2c(c1)=CC(=C1N=C(c3ccccc3)ON1)C(=O)N=2` (stereo in doubt) [(3Z)-6-methoxy-3-(5-phenyl-1,2,4-oxadiazol-3-ylidene)quinolin-2-one], in test [1], the inhibition at 20 µM worked out at 77.1%. Further, in test [2], the IC50 was 4230 nM and the “n / nH (Hill coefficient)” value is 4.29.

For `N#Cc1c(N2CCCC2)nc(N)c2c(N)nc(N3CCCC3)cc12` [1,8-Diamino-3,6-dipyrrolidin-1-yl-2,7-naphthyridine-4-carbonitrile], the inhibition at 20 µM in test [1] is 61.3%. Besides, in test [2], the IC50 stood at 6960 nM and the “n / nH (Hill coefficient)” value is listed as 0.99.

With `O=C1CC(=O)N(Cc2ccco2)C(=O)N1` [1-(2-Furylmethyl)-1,3-diazinane-2,4,6-trione], in test [1], the inhibition at 20 µM was 84.9%. Moreover, in test [2], the IC50 worked out at 1310 nM and the “n / nH (Hill coefficient)” value worked out at 1.67.

Take `c1coc(-c2nc(-c3ccco3)c(-c3ccco3)nc2-c2ccco2)c1` [2,3,5,6-tetrakis(2-furyl)pyrazine]: in test [1], the inhibition at 20 µM was found to be 74.1%. In test [2], the IC50 is 1140 nM and the “n / nH (Hill coefficient)” value is 2.26.

On to `Cc1c(N2C(=O)c3ccc4c5c(ccc(c35)C2=O)CC4)c(=O)n(-c2ccccc2)n1C` [2-(1,5-Dimethyl-3-oxo-2-phenyl-2,3-dihydro-1H-pyrazol-4-yl)-6,7-dihydro-1H-indeno[6,7,1-def]isoquinoline-1,3(2H)-dione], for which the inhibition at 20 µM in test [1] amounted to 93.1%. Besides, in test [2], the IC50 is 1170 nM and the “n / nH (Hill coefficient)” value is 2.23.

For `Cc1ccc(C)n1C(Cc1ccccc1)C(=O)O` (centres unmarked) [2-(2,5-Dimethylpyrrol-1-yl)-3-phenyl-propanoic acid], the inhibition at 20 µM in test [1] stood at 102%. The compound further returned an IC50 in test [2] of 420 nM.

For `O=C(O)C(O)c1ccco1` (centres unmarked) [2-(2-Furyl)-2-hydroxy-acetic acid], the inhibition at 20 µM in test [1] was 100%. Further, in test [2], the IC50 was 2300 nM and the “n / nH (Hill coefficient)” value came out at 1.79.

Regarding `Cc1cccc(Nc2nn3c(=O)c4ccccc4nc3s2)c1` [2-(3-Methylphenylamino)-5H-[1,3,4]thiadiazolo[2,3-b]quinazolin-5-one], the inhibition at 20 µM in test [1] is 53.9%. In test [2], the midpoint of inhibition, the IC50, lay at 2740 nM and the “n / nH (Hill coefficient)” value worked out at 1.32.
